Data reported in patent US10351519B2, “Sulfamate derivative compounds, processes for preparing them and their uses” (BIO-PHARM SOLUTIONS CO., LTD., priority 2016, dated 2019).

Assays:
Assay type in all cases: in vivo
ICR mice [1] = experiment: Chemical induced seizure model (BIC); settings: for ED50: Mus musculus, ip
Method: Male ICR mice (purchased from Orient Bio Inc. Korea) of body weight 19-26 g were used for these studies. The test materials were administered intraperitoneal route in a volume of 10 ul/g weight. Pharmacological effects of all the test materials were evaluated to compared test groups (n=6) with a control group (n=6). Control group was administrated vehicle, only. The peak time was determined by administration test material's random dose for 0.5-4 hour. The time that the most protect was defined peak time and ED50 was determined by other dose administration at peak time. BIC was dissolved in 0.9% saline and administered subcutaneously (s.c.) at its CD97 (convulsive dose 97%) the dose of BIC that produced clonic seizures in 97% into a loose fold of skin in the midline of the neck in a volume of 10 ul/g body weight. The animals were then transferred to observation cages and observed continuously for 30 min. Clonic seizure was elicited in approximately 95% of control group. Protection was defined as complete absence of a clonic seizure over the 30-min observation period. The time that the most protect was defined peak time and ED50 was determined by other dose administration at peak time. The effective dose of compound necessary to protect against seizures to 50% of controls (i.e. ED50) was determined by log probit analysis using Excel 2007 (Microsoft).

Sprague-Dawley rats = experiment: Antiallodynic activity on post operative-induced pain model; settings: intraperitoneal injection; for ED50: Rattus norvegicus, ip, read-out: Post Operation ED50
Description: Male Sprague-Dawley rats (230-250 g, Orient Bio, Korea), were habituated at least 3 days before surgery and were allowed free access to food and water throughout the experimentation. Room temperature and humidity were maintained at 24±2 and 50±10%, respectively. The process of performing the post-operation model's surgery was adapted from Brennan et al (1996). At first, rats with allodynia (threshold valueless than 8 g) were excluded in Pre-von Frey Test. During the post-operation surgery, rats were anesthetized under gaseous anesthesia with 2% isoflurane. The rat was placed, lying face down on 37 degree warm plate to prevent against hypothermia. The ipsilateral plantar aspect (left side) of the hind paw was prepared in a sterile manner with a 10% povidone-iodine solution. A 1 cm longitudinal incision was made with a number 10 blade, through the skin and fascia of the ipsilateral plantar aspect of the foot, starting from 0.5 cm from the proximal edge of the heel and extending toward the toes. Rats' plantar muscles were elevated and incised longitudinally. After hemostasis with gentle pressure, the skin was opposed with 2 mattress sutures of 4-0 Dafilon.
After 24 hours of recovery, rats with a good response (threshold less than 4 g) in Pre-von Frey Test were selected. According to this response, we made three groups with each group having equal average responses: Group 1, post-operation and drug treated; Group 2, post-operation and vehicle treated; Group 3, no post-operation and vehicle treated. In this study, Group 3 was the sham control (positive) group. […]
For efficacy measure, the threshold value of group C was assigned 100% efficacy, and the percentage of the threshold values of group A compared to group C (for each different dose level) were calculated as the efficacies. Base on these efficacy values, ED50 was calculated using log fitting. […]
For pain threshold test, all animals were placed in a stainless steel meshed chamber and habituated for 30 min in the test cage. The tactile sensitivity of the ipsilateral hind paw was measured using the up-and-down method (Dixon, 1980) with seven von Frey monofilaments (0.4, 1, 2, 4, 6, 8, and 15 g) using 3 trials. The 50% paw withdrawal threshold for each paw was calculated using the following formula: [Xth] log=[vFr] log+ky, where [vFr] is the force of the last von Frey filament used, k=0.2249 which is the average interval (in log units) between the von Frey monofilaments, y which is a value that depends upon the pattern of withdrawal responses, and Xth which is the threshold value (Dixon, 1980). […]
The relative values compared to the sham (% control) were calculated and shown in Table 7, which show an antiallodynic effect of the compound of examples on Post operation-induced pain model in rats.

ICR mice [2] = experiment: Tail-flick test; settings: orally
Method: To examine the pain relief effect of the sulfamate compounds, a tail-flick test was conducted, referring to Current Protocols in Neuroscience; Behavioral Neuroscience Unit 8.9.
ICR mice (male, 25-30 g; Orient Bio, Korea) were habituated before test (in test room) for 1 hour. Animals were fasted 2 hr before administration of compounds. Each of the tested compound were orally administered at the 1˜3 dose, 10 ul/g, by bw (n=4-6/group). All compounds were dissolved in a vehicle of 30% (v/v) PEG 400 or 20% (v/v) Tween 80. The control group was treated the vehicle without compounds.
After the administration of compounds, the mice tail were put on a tail-flick analgesia meter. To avoid tissue damage, maximal exposure time to pain stimuli was restricted to 15 seconds. The withdrawal latency was measured to the time to the point when each mouse responded. The relative values compared to the control (% control) were calculated.

C[C@H](OS(N)(=O)=O)[C@@H](O)c1c(Cl)cccc1Cl [Example 7, (1S, 2S)-1-(2,6-dichlorophenyl)-1-hydroxypropan-2-yl sulfamate]
BIC(ip) Peak Time (ICR mice [1]): 1 h
ED50 (ICR mice [1]): 30.8 mg/kg
ED50 (Sprague-Dawley rats): 5.8 mg/kg
Post Operation Peak Time (Sprague-Dawley rats): 0.5 h
tail-flick test Peak Time (ICR mice [2]): 1~2 hr
tail-flick test efficacy % (ICR mice [2]; 100 mg/kg): 100 (19.0%)

C[C@@H](OS(N)(=O)=O)[C@H](O)c1c(Cl)cccc1Cl [Example 8, (1R, 2R)-1-(2,6-dichlorophenyl)-1-hydroxypropan-2-yl sulfamate]
BIC(ip) Peak Time (ICR mice [1]): 1 h
ED50 (ICR mice [1]): 73.9 mg/kg
ED50 (Sprague-Dawley rats): 4.2 mg/kg
Post Operation Peak Time (Sprague-Dawley rats): 0.5 h
tail-flick test Dose (ICR mice [2]): >200 mg/kg
